The values that follow come from ChEMBL document CHEMBL3608214, “Optimization of Novel Antagonists to the Neurokinin-3 Receptor for the Treatment of Sex-Hormone Disorders (Part II)” (ACS Med Chem Lett, 2015).

Molecules are shown by their SMILES. Bounds are passed on as bounds.

Data set [1] is described as follows: Distribution coefficient, log D of the compound at pH 7.4. To be noted: octanol/water. It is filed as physicochemical.
Data set [2] in a line: Unbound fraction in monkey plasma at 5 mg/kg, po after 90 mins. To be noted: rhesus monkey.
Data set [3] is described as follows: Unbound fraction in rat brain at 1 mg/kg after 60 mins.
The nature of data set [4]: Ratio of unbound drug concentration in brain to plasma of rat at 1 mg/kg after 60 mins.
Data set [5] is described as follows: Volume of distribution at steady state in monkey at 10 mg/kg, iv. To be noted: rhesus monkey, in vivo.
Data set [6] is described as follows: Binding affinity to monkey NK3R.
The next data set deals with Rattus norvegicus. Put plainly: Inhibition of luteinizing hormone release in orally dosed rat. Conditions: po, read-out: MED.
For another data set, the system named is Cynomolgus monkey. Put plainly: Inhibition of luteinizing hormone release in orally dosed castrated cynomolgus monkey. Conditions: Macaca fascicularis, po, read-out: MED.
For data set [7], the target named is Voltage-gated inwardly rectifying potassium channel KCNH2 (Homo sapiens, UniProt Q12809).
The target in data set [8] is T1, Neuromedin-K receptor (Homo sapiens, UniProt P29371).
T1 sequence (P29371 whole entry): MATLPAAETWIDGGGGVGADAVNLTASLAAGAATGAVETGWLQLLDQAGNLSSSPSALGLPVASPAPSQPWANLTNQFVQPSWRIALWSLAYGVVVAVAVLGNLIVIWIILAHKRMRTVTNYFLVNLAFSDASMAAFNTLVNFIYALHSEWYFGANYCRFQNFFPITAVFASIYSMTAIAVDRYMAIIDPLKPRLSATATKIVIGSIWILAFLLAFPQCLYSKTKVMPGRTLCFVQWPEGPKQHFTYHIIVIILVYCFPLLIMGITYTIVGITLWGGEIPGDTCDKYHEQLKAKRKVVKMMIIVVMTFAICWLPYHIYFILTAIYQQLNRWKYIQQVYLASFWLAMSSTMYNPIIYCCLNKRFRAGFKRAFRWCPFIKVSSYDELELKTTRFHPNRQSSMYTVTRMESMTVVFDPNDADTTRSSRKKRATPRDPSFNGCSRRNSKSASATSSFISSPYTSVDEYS

Another data set addresses Cytochrome P450 3A4 (Homo sapiens, UniProt P08684).
The target of another data set is Cytochrome P450 2D6 (Homo sapiens, UniProt P10635).
The next data set concerns the target Cytochrome P450 2C9 (Homo sapiens, UniProt P11712).
The next data set has as its target Cytochrome P450 2C19 (Homo sapiens, UniProt P33261).
Another data set deals with T2, Cytochrome P450 1A2 (Homo sapiens, UniProt P05177).
T2 sequence (P05177 whole entry): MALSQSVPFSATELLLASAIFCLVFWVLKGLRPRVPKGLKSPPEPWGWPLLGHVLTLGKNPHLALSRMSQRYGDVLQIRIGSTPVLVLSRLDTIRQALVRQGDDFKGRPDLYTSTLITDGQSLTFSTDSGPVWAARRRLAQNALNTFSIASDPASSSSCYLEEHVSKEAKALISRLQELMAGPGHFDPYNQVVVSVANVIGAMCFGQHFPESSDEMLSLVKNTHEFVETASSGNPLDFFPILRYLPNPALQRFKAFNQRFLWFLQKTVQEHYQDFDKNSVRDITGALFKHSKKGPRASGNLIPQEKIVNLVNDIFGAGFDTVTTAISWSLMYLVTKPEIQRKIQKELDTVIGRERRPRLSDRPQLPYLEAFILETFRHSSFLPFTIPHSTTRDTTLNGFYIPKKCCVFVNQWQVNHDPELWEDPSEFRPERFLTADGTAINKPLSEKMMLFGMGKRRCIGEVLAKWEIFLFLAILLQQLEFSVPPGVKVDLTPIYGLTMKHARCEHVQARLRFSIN

Data set [9] deals with T1, Neuromedin-K receptor. This is another data set of the same source.
The target of data set [10] is T3, Neuromedin-K receptor (Rattus norvegicus, UniProt P16177).
T3 sequence (P16177 whole entry): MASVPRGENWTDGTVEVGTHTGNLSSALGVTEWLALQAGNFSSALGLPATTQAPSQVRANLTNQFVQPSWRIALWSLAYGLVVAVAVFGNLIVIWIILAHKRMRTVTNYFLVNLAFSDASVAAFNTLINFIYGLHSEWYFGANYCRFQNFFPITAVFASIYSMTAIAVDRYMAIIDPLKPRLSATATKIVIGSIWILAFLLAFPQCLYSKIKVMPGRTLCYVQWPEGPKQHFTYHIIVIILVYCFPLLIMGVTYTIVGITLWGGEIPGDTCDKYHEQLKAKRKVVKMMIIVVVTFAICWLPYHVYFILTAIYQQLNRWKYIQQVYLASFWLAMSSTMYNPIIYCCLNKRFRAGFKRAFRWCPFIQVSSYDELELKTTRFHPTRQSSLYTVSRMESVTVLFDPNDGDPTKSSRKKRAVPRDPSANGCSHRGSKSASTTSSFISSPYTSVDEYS
The experiment in a line: Binding affinity to rat NK3R.

The nature of data set [11]: Volume of distribution at steady state in rat at 1 mg/kg, iv. To be noted: in vivo.
Data set [12] in a line: Half life in rat at 1 mg/kg, iv. To be noted: in vivo.

Sequence of Cytochrome P450 3A4 (P08684 whole entry): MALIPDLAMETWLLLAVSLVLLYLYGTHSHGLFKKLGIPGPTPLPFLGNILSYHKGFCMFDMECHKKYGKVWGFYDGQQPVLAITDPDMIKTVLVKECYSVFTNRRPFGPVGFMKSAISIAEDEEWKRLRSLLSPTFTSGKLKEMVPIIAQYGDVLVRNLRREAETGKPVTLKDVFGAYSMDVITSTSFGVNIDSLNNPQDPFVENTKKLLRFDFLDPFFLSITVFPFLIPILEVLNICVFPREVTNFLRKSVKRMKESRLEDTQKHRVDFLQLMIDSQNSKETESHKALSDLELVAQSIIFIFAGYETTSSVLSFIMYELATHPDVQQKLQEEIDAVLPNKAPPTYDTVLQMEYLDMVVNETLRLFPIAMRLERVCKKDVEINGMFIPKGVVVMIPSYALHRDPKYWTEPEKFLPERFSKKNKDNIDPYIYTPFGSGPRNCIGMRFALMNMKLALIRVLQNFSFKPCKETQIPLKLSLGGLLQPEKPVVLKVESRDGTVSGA
Sequence of Cytochrome P450 2C9 (P11712 whole entry): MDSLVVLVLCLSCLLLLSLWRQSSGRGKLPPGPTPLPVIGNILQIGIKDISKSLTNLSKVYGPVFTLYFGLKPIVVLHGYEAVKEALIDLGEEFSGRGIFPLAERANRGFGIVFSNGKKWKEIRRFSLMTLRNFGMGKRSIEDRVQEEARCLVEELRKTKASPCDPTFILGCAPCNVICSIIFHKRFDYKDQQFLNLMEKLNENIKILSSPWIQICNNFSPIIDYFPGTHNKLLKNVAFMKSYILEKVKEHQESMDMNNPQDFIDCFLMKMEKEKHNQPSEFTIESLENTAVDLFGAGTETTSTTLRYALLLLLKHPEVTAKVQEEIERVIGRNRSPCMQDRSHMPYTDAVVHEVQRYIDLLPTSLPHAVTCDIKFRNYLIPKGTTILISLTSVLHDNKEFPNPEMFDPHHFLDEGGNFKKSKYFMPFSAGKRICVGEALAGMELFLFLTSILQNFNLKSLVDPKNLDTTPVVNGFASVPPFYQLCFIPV
Sequence of Cytochrome P450 2D6 (P10635 whole entry): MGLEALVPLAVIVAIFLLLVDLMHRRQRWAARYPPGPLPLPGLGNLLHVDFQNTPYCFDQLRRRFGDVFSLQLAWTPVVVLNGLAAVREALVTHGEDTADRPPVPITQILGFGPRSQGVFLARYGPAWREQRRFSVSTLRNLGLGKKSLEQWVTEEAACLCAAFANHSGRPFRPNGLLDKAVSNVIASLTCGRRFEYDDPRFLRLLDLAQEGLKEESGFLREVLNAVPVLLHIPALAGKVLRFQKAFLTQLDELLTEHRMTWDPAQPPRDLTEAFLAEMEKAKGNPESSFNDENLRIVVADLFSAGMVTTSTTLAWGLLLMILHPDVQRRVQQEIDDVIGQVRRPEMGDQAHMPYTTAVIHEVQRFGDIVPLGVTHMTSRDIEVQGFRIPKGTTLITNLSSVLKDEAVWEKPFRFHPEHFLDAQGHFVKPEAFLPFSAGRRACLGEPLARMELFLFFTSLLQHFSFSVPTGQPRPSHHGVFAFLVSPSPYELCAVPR
Sequence of Cytochrome P450 2C19 (P33261 whole entry): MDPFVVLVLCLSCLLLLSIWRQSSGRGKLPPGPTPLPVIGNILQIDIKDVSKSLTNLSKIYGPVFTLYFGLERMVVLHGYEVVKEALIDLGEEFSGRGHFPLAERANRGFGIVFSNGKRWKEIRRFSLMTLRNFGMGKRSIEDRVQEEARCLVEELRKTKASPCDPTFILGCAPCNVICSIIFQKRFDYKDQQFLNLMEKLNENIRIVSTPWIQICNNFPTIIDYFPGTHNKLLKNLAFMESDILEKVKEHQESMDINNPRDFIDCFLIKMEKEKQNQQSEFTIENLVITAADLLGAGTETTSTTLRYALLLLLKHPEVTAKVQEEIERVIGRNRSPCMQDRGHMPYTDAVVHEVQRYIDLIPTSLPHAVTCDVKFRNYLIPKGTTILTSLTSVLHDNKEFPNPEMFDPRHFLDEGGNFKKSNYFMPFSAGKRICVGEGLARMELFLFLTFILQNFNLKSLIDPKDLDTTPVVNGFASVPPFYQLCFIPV
Sequence of Voltage-gated inwardly rectifying potassium channel KCNH2 (Q12809 whole entry): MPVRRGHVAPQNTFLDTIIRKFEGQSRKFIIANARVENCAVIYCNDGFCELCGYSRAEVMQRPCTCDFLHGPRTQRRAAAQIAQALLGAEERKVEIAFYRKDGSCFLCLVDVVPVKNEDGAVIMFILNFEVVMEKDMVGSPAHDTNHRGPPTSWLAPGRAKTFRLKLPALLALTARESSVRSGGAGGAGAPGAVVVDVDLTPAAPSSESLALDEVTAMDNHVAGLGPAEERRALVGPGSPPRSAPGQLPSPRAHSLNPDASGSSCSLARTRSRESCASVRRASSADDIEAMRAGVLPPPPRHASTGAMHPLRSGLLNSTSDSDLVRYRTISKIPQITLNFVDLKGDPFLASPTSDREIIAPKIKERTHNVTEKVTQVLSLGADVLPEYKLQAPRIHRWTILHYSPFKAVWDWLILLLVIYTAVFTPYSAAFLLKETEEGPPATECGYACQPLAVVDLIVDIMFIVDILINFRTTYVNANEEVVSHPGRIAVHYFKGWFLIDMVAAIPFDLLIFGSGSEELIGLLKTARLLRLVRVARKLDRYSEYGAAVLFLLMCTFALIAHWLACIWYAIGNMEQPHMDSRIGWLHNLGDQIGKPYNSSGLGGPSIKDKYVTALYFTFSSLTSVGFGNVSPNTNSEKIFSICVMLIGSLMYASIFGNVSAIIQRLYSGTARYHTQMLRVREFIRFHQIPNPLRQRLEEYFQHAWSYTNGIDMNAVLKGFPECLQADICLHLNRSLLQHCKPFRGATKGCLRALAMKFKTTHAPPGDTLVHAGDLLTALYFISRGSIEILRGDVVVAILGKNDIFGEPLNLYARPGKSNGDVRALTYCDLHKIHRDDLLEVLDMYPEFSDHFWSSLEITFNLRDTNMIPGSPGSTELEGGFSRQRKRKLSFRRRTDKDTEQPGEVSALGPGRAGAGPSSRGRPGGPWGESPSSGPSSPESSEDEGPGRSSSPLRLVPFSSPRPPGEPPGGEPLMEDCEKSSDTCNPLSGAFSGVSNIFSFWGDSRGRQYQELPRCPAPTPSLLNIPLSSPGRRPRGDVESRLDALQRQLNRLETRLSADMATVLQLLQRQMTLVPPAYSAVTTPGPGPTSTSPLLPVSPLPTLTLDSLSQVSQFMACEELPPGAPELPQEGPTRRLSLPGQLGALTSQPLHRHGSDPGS
Description for Cytochrome P450 1A2: Inhibition of CYP1A2 (unknown origin)
Description for Cytochrome P450 2C19: Inhibition of CYP2C19 (unknown origin)
Description for Cytochrome P450 2C9: Inhibition of CYP2C9 (unknown origin)
Description for Cytochrome P450 2D6: Inhibition of CYP2D6 (unknown origin)
Description for Cytochrome P450 3A4: Inhibition of CYP3A4 (unknown origin)

As a reminder, the logD is lipophilicity at a set pH, counting ionised and neutral species. As to `C[C@@H]1c2nnc(-c3csc(-c4ccc(F)cc4F)n3)n2CCN1C(=O)c1ccc(-c2cccs2)cc1`, in data set [1], the log distribution coefficient (logD) is on record as 5.

As usually defined, the fraction unbound is the share of the substance not bound to proteins or other matrix. What is called Vd is the apparent volume that relates the amount in the body to the concentration in plasma or blood. By Ki is commonly meant a dissociation constant, usually derived from enzyme kinetics or from competition with a known ligand. In general, IC50 refers to the concentration that inhibits the measured activity by half. Consider `Cc1nc(-c2nnc3n2CCN(C(=O)c2ccc(-c4cccs4)cc2)[C@@H]3C)cs1`, for which the logD in data set [1] (read-out: logD) came to 3.1. In addition, the fraction unbound at […] in data set [2] was 0.043. Moreover, the fraction unbound at 1 h in [3] worked out at 0.028. For the same compound, the Kp uu at 1 h in data set [4] was found to be 0.14. The compound also gave a Vd in data set [5] of 1.52 L/kg. This compound also showed a Ki in data set [6] of 20 nM. Moreover, the values for the minimal effective dose with Rattus norvegicus and in the data set on Cynomolgus monkey were 60 mg/kg and 20 mg/kg, respectively. In data set [7], the 50% inhibitory concentration (IC50) was 24000 nM.

In the case of `Cc1nnc(-c2nnc3n2CCN(C(=O)c2ccc(F)cc2)[C@@H]3C)s1`, the logD in [1] is listed as 0.8.

As to `Cc1noc(-c2nnc3n2CCN(C(=O)c2ccc(F)cc2)[C@@H]3C)n1`, the log distribution coefficient (logD) in [1] is reported as 0.7. Affinity at Neuromedin-K receptor [8] was put at a Ki of 126 nM. Further, the IC50 is more than 100000 nM on Cytochrome P450 3A4; more than 100000 nM against Cytochrome P450 2D6; 42000 nM at Cytochrome P450 2C9; 34000 nM at Cytochrome P450 2C19; 86000 nM against Cytochrome P450 1A2.

With `CC(C)c1noc(-c2nnc3n2CCN(C(=O)c2ccc(F)cc2)[C@@H]3C)n1`, the pH-dependent lipophilicity (logD) in data set [1] amounted to 1.7. Besides, the inhibitory constant (Ki) on Neuromedin-K receptor [8] was 25.1 nM. For the same compound, on Neuromedin-K receptor [9], the IC50 is 39.8 nM.

For the compound `Cc1nsc(-c2nnc3n2CCN(C(=O)c2ccc(F)cc2)C3)n1`, the Ki on Neuromedin-K receptor [10] was 2030 nM; at Neuromedin-K receptor [8], 100 nM. Besides, the minimal effective dose in the data set on Rattus norvegicus amounted to 30 mg/kg. At Neuromedin-K receptor [9], the half-inhibitory concentration (IC50) was 158 nM.

Consider `C[C@@H]1c2nnc(-c3ncns3)n2CCN1C(=O)c1ccc(F)cc1`, for which, in data set [1], the pH-dependent lipophilicity (logD) is 1.1.

`Cc1nsc(-c2nnc3n2CCN(C(=O)c2ccc(F)cc2)C3(C)C)n1`: the logD in [1] came out at 2. The IC50 on Cytochrome P450 3A4 was more than 100000 nM; against Cytochrome P450 2D6, more than 100000 nM; at Cytochrome P450 2C9 it was 12000 nM; at Cytochrome P450 2C19 it was 4000 nM; against Cytochrome P450 1A2, 51000 nM.

Consider `Cc1nsc(-c2nnc3n2CCN(C(=O)c2ccc(Cl)cc2)[C@@H]3C)n1`, for which the affinity at Neuromedin-K receptor [8] corresponds to a Ki of 20 nM. Also, on Neuromedin-K receptor [9], the IC50 was 31.6 nM.

The compound `C[C@@H]1c2nnc(-c3nc(C(F)(F)F)ns3)n2CCN1C(=O)c1ccc(F)cc1` gave a Ki at Neuromedin-K receptor [10] of 85 nM. The minimal effective dose with Rattus norvegicus stood at 10 mg/kg.

`Cc1nsc(-c2nnc3n2CCN(C(=O)c2ccccc2)[C@@H]3C)n1`: the Ki at Neuromedin-K receptor [10] is 573 nM; on Neuromedin-K receptor [8], 50.1 nM. Also, the minimal effective dose with Rattus norvegicus is 30 mg/kg. At Neuromedin-K receptor [9], this compound had a 50% inhibitory concentration (IC50) of 63.1 nM.

`Cc1nsc(-c2nnc3n2CCN(C(=O)c2ccc(F)cc2)[C@@H]3CCO)n1`: the inhibition constant (Ki) was 244 nM at Neuromedin-K receptor [10] and 31.6 nM on Neuromedin-K receptor [8]. For the same compound, at Neuromedin-K receptor [9], the half-inhibitory concentration (IC50) was 79.4 nM.

Broadly, the half-life is how long it takes for the measured level to halve. `Cc1nsc(-c2nnc3n2CCN(C(=O)c2ccc(F)cc2)[C@@H]3C)n1` [FEZOLINETANT] returned a volume of distribution (Vd) in data set [11] of 0.6 L/kg. The same compound showed a half-life in data set [12] of 4.65 h. Further, the inhibition constant Ki on Neuromedin-K receptor [10] was 219 nM; on Neuromedin-K receptor [8] it was 25.1 nM. Also, the half-maximal inhibitory concentration (IC50) against Neuromedin-K receptor [9] was 20 nM.
